From ChEMBL document CHEMBL5233207, “Medicinal chemistry of the myeloid C-type lectin receptors Mincle, Langerin, and DC-SIGN” (RSC Med Chem, 2021)
Counter-ions that a name gives are not always drawn.

Columns and labels:
[1] = target: T1, C-type lectin domain family 4 member M (Homo sapiens) (UniProt Q9H2X3); test: Inhibition of DC-SIGN (unknown origin)- mediated fluorescent probe binding at 1 mM relative to control
T1 sequence (whole entry): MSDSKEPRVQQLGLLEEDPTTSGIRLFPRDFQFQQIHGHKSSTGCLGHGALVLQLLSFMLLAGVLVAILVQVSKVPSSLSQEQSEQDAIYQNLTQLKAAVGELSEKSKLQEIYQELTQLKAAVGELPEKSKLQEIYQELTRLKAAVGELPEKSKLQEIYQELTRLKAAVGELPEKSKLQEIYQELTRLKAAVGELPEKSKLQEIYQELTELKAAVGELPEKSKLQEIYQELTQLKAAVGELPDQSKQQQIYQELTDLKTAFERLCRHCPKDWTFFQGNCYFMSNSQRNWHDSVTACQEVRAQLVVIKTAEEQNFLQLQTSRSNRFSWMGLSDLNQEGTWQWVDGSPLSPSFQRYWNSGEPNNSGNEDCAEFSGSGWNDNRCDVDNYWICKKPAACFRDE

[2] = target: T1, C-type lectin domain family 4 member M (Homo sapiens); test: Inhibition of DC-SIGN (unknown origin)- mediated fluorescent probe binding at 0.1 mM relative to control
[3] = target: C-type lectin domain family 4 member K (Homo sapiens, UniProt Q9UJ71); test: Binding affinity to Langerin (unknown origin) by [19F] R2-filtered NMR assay
[4] = test system: Human immunodeficiency virus 1; test: Antiviral activity against HIV-1 in human CD4+Th cells expressing DC-SIGN assessed as inhibition of viral infection; type: functional, organism-based; details: Human immunodeficiency virus 1, CD4+ve Th
[5] = test system: Ebolavirus; test: Antiviral activity against envelope pseudotyped Ebola virus in human Jurkat cells expressing DC-SIGN assessed as inhibition of viral infection; type: functional, organism-based
[6] = Inhibition of DC-SIGN (unknown origin)/ SARS CoV-2 spike glycoprotein interaction
[7] = target: T2, C-type lectin domain family 4 member K (Mus musculus, UniProt Q8VBX4); test: Inhibition of mannan binding to mouse Langerin extracellular domain by ELLA assay
T2 sequence (Q8VBX4 whole entry): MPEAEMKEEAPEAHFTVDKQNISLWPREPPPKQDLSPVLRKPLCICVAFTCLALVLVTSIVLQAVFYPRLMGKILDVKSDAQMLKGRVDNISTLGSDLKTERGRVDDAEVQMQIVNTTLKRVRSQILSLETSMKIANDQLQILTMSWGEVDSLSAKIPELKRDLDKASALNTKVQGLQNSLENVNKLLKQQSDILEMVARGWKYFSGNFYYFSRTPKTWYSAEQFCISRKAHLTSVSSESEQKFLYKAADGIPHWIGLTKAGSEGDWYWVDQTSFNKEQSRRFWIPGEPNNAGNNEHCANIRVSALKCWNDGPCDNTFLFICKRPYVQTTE

[8] = target: T2, C-type lectin domain family 4 member K; test: Inhibition of mannan binding to mouse Langerin extracellular domain assessed as apparent dissociation constant by ELLA assay; details: read-out: Kd(app)

Chain of C-type lectin domain family 4 member K (Homo sapiens, UniProt Q9UJ71) (Q9UJ71 whole entry, the tested form may be a part): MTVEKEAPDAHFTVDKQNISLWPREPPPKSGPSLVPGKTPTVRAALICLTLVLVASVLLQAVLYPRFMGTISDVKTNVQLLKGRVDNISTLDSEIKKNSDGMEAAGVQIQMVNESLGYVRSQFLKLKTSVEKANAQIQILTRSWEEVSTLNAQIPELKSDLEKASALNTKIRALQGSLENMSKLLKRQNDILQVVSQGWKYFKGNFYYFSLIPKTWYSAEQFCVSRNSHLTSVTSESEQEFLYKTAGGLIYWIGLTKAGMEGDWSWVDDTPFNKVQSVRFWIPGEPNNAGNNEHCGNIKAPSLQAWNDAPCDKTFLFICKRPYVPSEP

Q: What does the source list for `NC(=O)c1ccc(CCCC2Nc3ccc(C(=O)N4CCN(c5ncccn5)CC4)cc3NC2=O)cc1` (stereo unspecified)?
A: inhibition [1]: 77%; inhibition [2]: 53%

Q: With `C#CCO[C@H]1O[C@H](CO)[C@@H](O)[C@H](O)[C@@H]1NC(=O)Cc1nnn[nH]1` as the compound, how does the Ki [3] read?
A: 7600 µM

Q: Which Ki [3] does the source give for `C#CCO[C@H]1O[C@H](CO)[C@@H](O)[C@H](O)[C@@H]1NC(C)=O` here?
A: 48000 µM

Q: Which Ki [3] does the source give for `CC(=O)NCCO[C@@H]1O[C@H](CO)[C@@H](O)[C@H](O)[C@H]1NS(=O)(=O)c1ccc(C)cc1` here?
A: 320 µM

Q: Which Ki [3] does the source give for `N[C@H]1C(O)O[C@H](CO)[C@@H](O)[C@@H]1O` (stereo partly specified) [GLUCOSAMINE SULFATE] here?
A: 1400 µM

Q: What does the source list for `COC(=O)[C@H]1C[C@H](OCCN)[C@@H](O[C@H]2O[C@H](CO)[C@@H](O)[C@H](O)[C@@H]2O)C[C@@H]1C(=O)OC`?
A: IC50 [4]: 0.024 µM; IC50 ([5]; jurkat): < 0.06 µM

Q: With `C#CCO[C@H]1O[C@H](CO)[C@@H](O)[C@H](O)[C@@H]1NC(=O)CS(=O)(=O)O` as the compound, how does the Ki [3] read?
A: 1300 µM

Q: For `O=C(NCc1ccc(CO)cc1)[C@H]1C[C@H](OCCn2cc(COCCC(CCOCCn3cc(-c4cc(OCCOCCO)c(C#Cc5cc(OCCOCCO)c(C#Cc6cc(OCCOCCO)c(-c7cn(CCOCCC(CCOCc8cn(CCO[C@H]9C[C@H](C(=O)NCc%10ccc(CO)cc%10)[C@@H](C(=O)NCc%10ccc(CO)cc%10)C[C@@H]9O[C@H]9O[C@H](CO)[C@@H](O)[C@H](O)[C@@H]9O)nn8)(CCOCc8cn(CCO[C@H]9C[C@H](C(=O)NCc%10ccc(CO)cc%10)[C@@H](C(=O)NCc%10ccc(CO)cc%10)C[C@@H]9O[C@H]9O[C@H](CO)[C@@H](O)[C@H](O)[C@@H]9O)nn8)CCOCc8cn(CCO[C@H]9C[C@H](C(=O)NCc%10ccc(CO)cc%10)[C@@H](C(=O)NCc%10ccc(CO)cc%10)C[C@@H]9O[C@H]9O[C@H](CO)[C@@H](O)[C@H](O)[C@@H]9O)nn8)nn7)cc6OCCOCCO)cc5OCCOCCO)cc4OCCOCCO)nn3)(CCOCc3cn(CCO[C@H]4C[C@H](C(=O)NCc5ccc(CO)cc5)[C@@H](C(=O)NCc5ccc(CO)cc5)C[C@@H]4O[C@H]4O[C@H](CO)[C@@H](O)[C@H](O)[C@@H]4O)nn3)CCOCc3cn(CCO[C@H]4C[C@H](C(=O)NCc5ccc(CO)cc5)[C@@H](C(=O)NCc5ccc(CO)cc5)C[C@@H]4O[C@H]4O[C@H](CO)[C@@H](O)[C@H](O)[C@@H]4O)nn3)nn2)[C@@H](O[C@H]2O[C@H](CO)[C@@H](O)[C@H](O)[C@@H]2O)C[C@@H]1C(=O)NCc1ccc(CO)cc1`, which IC50 [6] is on record?
A: 9.6 µM

Q: With `NS(=O)(=O)c1ccc(CCCC2Nc3ccc(C(=O)N4CCN(c5ccncc5)CC4)cc3NC2=O)cc1` (stereo unspecified) as the compound, how does the inhibition [1] read?
A: 92%

Q: And the inhibition [2]?
A: 79%

Q: What does the source list for `O=C(NCCc1cn2c(n1)SCC2)c1cnc2sccn2c1=O`?
A: IC50 [7]: 50 µM; Kd [8]: 450 µM

Q: Which results are given for `[N-]=[N+]=NCCO[C@H]1C[C@H](C(=O)NCc2ccc(CO)cc2)[C@@H](C(=O)NCc2ccc(CO)cc2)C[C@@H]1O[C@H]1O[C@H](CO)[C@@H](O)[C@H](O)[C@@H]1O`?
A: IC50 [4]: 0.024 µM; IC50 ([5]; Orthoebolavirus, Jurkat): < 0.06 µM
